{
  "source": "ChEMBL document CHEMBL5653631",
  "about": "“A Potent and Selective ULK1 Inhibitor Suppresses Autophagy and Sensitizes Cancer Cells to Nutrient Stress” (iScience, 2018)",
  "key": {"[1]": {"molecular_target": "Mitogen-activated protein kinase kinase kinase 20 (Homo sapiens) (UniProt Q9NYL2)", "sequence (Q9NYL2 2-800 limits assumed)": "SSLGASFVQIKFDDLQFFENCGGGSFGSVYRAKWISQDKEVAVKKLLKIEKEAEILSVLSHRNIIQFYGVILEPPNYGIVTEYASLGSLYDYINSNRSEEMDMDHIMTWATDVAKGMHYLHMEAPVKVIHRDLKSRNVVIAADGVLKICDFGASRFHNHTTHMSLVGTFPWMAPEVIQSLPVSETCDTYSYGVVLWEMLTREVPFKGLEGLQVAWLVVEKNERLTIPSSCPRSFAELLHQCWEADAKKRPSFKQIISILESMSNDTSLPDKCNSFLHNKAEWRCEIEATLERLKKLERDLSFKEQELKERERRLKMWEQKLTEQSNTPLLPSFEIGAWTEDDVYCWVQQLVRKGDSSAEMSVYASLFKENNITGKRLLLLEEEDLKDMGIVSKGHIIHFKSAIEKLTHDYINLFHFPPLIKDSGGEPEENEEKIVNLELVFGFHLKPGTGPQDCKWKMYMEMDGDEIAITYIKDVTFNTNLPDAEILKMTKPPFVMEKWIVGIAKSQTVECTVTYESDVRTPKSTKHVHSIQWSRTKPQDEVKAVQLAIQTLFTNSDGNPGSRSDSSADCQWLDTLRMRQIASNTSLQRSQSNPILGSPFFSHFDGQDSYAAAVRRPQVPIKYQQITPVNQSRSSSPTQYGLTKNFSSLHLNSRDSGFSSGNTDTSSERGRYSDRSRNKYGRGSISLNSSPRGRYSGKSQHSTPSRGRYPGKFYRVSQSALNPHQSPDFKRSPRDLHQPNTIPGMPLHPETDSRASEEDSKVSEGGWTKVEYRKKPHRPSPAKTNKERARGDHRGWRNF", "assay": "Inhibition of human recombinant ZAK at 40 nM related to control ULK1"}, "[2]": {"molecular_target": "T1, cGMP-dependent protein kinase 1 (Homo sapiens) (UniProt Q13976)", "T1 sequence (whole entry)": "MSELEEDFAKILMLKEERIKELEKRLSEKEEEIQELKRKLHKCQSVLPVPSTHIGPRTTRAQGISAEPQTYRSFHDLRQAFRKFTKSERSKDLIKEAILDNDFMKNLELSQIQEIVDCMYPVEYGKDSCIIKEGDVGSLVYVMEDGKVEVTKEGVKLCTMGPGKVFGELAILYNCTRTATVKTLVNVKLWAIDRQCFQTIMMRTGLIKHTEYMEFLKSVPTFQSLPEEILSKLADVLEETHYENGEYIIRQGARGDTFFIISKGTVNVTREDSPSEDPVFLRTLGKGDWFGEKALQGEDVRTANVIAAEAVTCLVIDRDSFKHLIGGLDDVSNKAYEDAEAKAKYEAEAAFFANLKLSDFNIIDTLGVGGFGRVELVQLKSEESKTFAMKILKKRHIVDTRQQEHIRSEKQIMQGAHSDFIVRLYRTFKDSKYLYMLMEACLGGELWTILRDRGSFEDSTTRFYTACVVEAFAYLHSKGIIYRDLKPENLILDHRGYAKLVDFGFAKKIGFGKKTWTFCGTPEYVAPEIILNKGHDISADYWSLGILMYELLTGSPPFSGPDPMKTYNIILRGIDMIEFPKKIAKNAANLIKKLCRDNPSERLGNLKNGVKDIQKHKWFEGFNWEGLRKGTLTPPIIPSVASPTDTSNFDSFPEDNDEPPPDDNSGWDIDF", "assay": "Inhibition of human recombinant PKG1 at 40 nM in presence of ATP by radiometric assay relative to control"}, "[3]": {"molecular_target": "Cyclin-dependent kinase 13 (Homo sapiens) (UniProt Q14004)", "assay": "Inhibition of human recombinant CHED at 40 nM related to control ULK1"}, "[4]": {"molecular_target": "Rho-associated protein kinase 2 (Homo sapiens) (UniProt O75116)", "sequence (O75116 whole entry, looked up)": "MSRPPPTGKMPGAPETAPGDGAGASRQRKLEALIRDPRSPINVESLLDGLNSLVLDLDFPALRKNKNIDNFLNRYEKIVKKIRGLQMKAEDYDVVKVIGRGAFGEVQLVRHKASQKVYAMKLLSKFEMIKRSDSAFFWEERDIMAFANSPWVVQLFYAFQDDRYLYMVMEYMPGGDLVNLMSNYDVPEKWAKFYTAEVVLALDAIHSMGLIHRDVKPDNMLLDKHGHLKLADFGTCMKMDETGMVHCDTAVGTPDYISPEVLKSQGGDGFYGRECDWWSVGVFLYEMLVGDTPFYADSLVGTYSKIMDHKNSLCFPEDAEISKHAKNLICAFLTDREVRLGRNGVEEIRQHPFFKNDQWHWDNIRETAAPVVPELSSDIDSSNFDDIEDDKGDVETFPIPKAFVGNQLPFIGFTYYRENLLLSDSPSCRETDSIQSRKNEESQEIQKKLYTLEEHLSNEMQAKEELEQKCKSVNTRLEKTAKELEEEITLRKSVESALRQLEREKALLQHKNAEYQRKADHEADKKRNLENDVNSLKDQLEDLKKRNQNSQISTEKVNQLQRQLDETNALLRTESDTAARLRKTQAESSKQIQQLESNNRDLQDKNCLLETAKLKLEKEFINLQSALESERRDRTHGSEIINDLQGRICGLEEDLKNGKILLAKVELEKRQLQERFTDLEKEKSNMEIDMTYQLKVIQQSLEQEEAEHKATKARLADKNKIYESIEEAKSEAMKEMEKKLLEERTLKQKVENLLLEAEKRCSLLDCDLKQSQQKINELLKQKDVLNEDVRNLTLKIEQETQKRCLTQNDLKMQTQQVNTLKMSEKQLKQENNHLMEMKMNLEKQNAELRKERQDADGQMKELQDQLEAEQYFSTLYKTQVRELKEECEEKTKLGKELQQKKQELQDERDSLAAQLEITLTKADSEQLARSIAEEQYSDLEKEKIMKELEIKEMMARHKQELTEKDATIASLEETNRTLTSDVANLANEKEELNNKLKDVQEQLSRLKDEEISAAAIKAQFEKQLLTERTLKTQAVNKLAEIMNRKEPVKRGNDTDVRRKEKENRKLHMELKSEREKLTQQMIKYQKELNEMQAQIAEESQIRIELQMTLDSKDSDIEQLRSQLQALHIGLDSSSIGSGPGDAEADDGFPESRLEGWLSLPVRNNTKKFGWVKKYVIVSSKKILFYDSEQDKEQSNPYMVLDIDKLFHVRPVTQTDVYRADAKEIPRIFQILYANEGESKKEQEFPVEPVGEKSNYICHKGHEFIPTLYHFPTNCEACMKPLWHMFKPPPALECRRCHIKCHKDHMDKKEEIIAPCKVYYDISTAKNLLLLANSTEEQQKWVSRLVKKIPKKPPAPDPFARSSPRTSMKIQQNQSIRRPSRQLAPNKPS", "assay": "Inhibition of human recombinant ROCK2 at 40 nM related to control ULK1"}, "[5]": {"molecular_target": "Activated CDC42 kinase 1 (Homo sapiens) (UniProt Q07912)", "sequence (Q07912 whole entry, looked up)": "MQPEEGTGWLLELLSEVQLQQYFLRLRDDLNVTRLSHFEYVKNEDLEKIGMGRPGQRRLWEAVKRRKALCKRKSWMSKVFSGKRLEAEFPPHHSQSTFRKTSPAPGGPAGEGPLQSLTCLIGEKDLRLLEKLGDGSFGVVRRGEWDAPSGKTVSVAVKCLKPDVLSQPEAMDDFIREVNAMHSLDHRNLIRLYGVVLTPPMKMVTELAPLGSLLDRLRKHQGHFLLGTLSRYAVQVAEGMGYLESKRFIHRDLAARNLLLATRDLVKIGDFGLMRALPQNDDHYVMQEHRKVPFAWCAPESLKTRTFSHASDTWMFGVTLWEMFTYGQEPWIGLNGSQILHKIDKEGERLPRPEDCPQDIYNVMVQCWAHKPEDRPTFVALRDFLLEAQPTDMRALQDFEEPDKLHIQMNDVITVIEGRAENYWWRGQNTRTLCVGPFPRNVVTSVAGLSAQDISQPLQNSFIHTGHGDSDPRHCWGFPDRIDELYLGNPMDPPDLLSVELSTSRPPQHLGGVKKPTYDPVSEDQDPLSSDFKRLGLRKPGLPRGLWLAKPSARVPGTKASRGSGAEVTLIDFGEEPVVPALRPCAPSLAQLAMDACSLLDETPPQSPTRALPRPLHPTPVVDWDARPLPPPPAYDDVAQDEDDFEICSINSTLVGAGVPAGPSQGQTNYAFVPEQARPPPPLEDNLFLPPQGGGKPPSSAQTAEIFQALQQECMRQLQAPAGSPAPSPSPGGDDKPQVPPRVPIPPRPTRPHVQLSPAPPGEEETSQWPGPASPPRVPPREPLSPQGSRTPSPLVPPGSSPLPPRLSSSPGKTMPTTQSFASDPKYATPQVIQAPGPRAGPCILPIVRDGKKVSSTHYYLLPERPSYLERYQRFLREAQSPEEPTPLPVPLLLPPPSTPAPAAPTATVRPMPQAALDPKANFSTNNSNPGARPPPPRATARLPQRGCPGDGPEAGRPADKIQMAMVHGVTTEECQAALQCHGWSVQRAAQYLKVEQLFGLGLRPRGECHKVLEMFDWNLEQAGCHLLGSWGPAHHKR", "assay": "Inhibition of human recombinant ACK at 500 nM related to control ULK1"}, "[6]": {"molecular_target": "T2, Serine/threonine-protein kinase TBK1 (Homo sapiens) (UniProt Q9UHD2)", "T2 sequence (whole entry)": "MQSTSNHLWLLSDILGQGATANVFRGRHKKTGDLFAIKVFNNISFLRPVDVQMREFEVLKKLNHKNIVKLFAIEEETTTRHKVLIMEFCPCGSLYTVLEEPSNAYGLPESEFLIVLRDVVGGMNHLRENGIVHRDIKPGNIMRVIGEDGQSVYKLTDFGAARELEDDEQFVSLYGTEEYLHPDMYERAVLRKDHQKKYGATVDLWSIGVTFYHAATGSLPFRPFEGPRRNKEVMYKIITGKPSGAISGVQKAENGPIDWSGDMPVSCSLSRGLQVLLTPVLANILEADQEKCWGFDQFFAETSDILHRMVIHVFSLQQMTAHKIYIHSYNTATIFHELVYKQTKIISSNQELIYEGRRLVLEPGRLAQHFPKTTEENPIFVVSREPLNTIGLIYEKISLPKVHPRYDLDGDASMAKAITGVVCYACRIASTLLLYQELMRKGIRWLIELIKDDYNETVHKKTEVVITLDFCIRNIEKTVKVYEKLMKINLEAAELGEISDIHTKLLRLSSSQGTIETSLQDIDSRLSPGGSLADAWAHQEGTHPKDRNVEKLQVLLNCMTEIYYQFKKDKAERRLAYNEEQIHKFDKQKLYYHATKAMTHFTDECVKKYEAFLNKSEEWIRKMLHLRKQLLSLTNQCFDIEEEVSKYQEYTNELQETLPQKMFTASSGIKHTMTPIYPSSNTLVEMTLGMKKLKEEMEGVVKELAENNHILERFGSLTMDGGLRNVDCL", "assay": "Inhibition of human recombinant TBK1 at 500 nM related to control ULK1"}, "[7]": {"molecular_target": "Phosphorylase b kinase gamma catalytic chain, skeletal muscle/heart isoform (Homo sapiens) (UniProt Q16816)", "sequence (Q16816 whole entry, looked up, canonical isoform)": "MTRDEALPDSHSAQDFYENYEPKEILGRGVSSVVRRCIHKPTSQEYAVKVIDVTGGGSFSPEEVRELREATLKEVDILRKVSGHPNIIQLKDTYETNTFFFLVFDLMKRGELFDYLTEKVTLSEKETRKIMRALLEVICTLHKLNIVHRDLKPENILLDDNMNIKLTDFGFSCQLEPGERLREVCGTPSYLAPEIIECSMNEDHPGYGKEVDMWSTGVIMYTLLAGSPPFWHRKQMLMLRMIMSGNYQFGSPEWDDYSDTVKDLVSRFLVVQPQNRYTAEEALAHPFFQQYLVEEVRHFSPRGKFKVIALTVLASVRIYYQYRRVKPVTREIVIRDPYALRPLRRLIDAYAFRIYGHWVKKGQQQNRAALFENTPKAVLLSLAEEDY", "assay": "Inhibition of human recombinant PHKg1 at 500 nM in presence of ATP by radiometric assay relative to control"}, "[8]": {"molecular_target": "T3, Mitogen-activated protein kinase 12 (Homo sapiens) (UniProt P53778)", "T3 sequence (whole entry)": "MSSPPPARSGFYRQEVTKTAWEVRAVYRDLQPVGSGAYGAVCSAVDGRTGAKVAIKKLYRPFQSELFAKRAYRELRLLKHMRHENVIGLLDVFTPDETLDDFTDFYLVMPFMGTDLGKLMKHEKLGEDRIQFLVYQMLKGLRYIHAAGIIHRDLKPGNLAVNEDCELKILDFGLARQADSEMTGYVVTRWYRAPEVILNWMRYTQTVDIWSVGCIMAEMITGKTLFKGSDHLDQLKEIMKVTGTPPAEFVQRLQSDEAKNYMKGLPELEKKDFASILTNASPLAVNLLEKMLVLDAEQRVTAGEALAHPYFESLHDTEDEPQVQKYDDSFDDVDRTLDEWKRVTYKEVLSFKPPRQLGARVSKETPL", "assay": "Inhibition of human recombinant p38gamma at 500 nM in presence of ATP by radiometric assay relative to control"}, "[9]": {"molecular_target": "Serine/threonine-protein kinase Nek4 (Homo sapiens) (UniProt P51957)", "sequence (P51957 whole entry, looked up)": "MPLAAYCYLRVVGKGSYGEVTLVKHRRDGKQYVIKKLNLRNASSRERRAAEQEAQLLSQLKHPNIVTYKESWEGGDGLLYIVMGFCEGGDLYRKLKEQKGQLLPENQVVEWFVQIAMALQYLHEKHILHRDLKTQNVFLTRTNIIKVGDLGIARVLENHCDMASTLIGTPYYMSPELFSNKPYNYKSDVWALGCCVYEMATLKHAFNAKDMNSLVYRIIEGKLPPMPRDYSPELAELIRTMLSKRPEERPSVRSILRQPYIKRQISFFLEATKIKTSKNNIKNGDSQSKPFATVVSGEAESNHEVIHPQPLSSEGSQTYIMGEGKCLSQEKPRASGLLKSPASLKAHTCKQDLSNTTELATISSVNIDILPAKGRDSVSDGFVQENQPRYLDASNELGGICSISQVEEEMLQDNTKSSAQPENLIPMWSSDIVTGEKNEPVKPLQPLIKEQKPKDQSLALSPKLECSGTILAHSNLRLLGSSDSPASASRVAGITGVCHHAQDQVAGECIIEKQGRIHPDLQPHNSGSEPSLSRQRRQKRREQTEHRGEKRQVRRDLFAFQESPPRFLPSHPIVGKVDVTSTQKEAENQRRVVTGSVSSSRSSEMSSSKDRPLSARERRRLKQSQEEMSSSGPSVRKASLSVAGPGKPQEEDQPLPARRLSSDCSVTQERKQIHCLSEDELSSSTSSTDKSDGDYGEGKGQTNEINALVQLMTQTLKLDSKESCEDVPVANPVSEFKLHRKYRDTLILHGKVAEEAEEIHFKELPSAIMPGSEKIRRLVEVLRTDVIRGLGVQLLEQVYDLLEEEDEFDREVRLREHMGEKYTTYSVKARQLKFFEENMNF", "assay": "Inhibition of human recombinant NEK4 at 15 nM in presence of ATP by radiometric assay relative to control"}},
  "data": [
    {"smiles": "O=C(N[C@@H](C1CC1)C(F)(F)F)c1cc(-c2cnn3cc(-c4ccc(F)cc4)cnc23)cs1", "values": [
      {"measurement": "fold change (FC)", "setting": "[1]", "result": 0},
      {"measurement": "inhibition", "setting": "[2]", "result": 6, "unit": "%"},
      {"measurement": "fold change (FC)", "setting": "[3]", "result": 0.05},
      {"measurement": "fold change (FC)", "setting": "[4]", "result": 0.03}
    ]},
    {"smiles": "CNC(=O)c1ccccc1Oc1nc(Nc2cc(OC)c(OC)c(OC)c2)ncc1Br", "values": [
      {"measurement": "fold change (FC)", "setting": "[5]", "result": 0.42},
      {"measurement": "fold change (FC)", "setting": "[6]", "result": 0},
      {"measurement": "inhibition", "setting": "[7]", "result": 23, "unit": "%"},
      {"measurement": "inhibition", "setting": "[8]", "result": 0, "unit": "%"}
    ]},
    {"smiles": "CC(C)[C@H](NC(=O)c1cc(-c2cnn3cc(-c4ccc(OCCN5CCCCC5)cc4)cnc23)cs1)C(F)(F)F", "values": [
      {"measurement": "inhibition", "setting": "[9]", "result": 6, "unit": "%"}
    ]}
  ]
}
